Source: patent EP3995830A1, “METHOD OF PROGNOSIS OF AN INDIVIDUAL HAVING MULTIPLE MYELOMA TO BE SENSITIVE TO A TREATMENT” (Centre national de la recherche scientifique, priority 2020, dated 2022)

System: HMCLs
Assay: HMCLs response to drug treatment (IC50 at day 4, CellTiter-Glo assay)
Format: cell-based, human
Conditions: classification from IC50 at day 4
Method: HMCLs were cultured in RPMI-1640 medium (Gibco, Thermo Fisher Scientific, Waltham, USA) supplemented with 10% fetal bovine serum (Eurobio, Les Ulis, France) and IL-6 (Peprotech, Rocky Hill, USA) for XG cell lines. The inventorsevaluated the sensitivity of HMCLs to lenalidomide and romidepsin (Selleckchem, Houston, USA). The IC50 was determined at day 4 using the CellTiter-Glo assay (Promega, Madison, USA), as previously described. The data represent the mean ± standard deviation of three independent experiments that were carried out on sextuplet culture wells (Figure 6A and 7A).

## Nc1cccc2c1CN(C1CCC(=O)NC1=O)C2=O (centres unmarked) [lenalidomide]
AMO1, JJN3, KMS-12-BM, SKMM2, XG1, XG5, XG7, XG12, XG20 and XG21 HMCLs
  sensitivity of HMCLs to lenalidomide: resistant
OPM2, RPMI8226, XG2, XG6, XG13 and XG19 HMCLs
  sensitivity of HMCLs to lenalidomide: sensitive
